IC50 data for 26 molecules are collected here from patent US20170275270A1, “BENZYL SUBSTITUTED INDAZOLES” (Bayer Pharma Aktiengesellschaft, priority 2014, published 2017).

Each structure is given as a SMILES string. Where a name gives a salt, the structure may show the parent alone.

T1 sequence (O43683 704-1085): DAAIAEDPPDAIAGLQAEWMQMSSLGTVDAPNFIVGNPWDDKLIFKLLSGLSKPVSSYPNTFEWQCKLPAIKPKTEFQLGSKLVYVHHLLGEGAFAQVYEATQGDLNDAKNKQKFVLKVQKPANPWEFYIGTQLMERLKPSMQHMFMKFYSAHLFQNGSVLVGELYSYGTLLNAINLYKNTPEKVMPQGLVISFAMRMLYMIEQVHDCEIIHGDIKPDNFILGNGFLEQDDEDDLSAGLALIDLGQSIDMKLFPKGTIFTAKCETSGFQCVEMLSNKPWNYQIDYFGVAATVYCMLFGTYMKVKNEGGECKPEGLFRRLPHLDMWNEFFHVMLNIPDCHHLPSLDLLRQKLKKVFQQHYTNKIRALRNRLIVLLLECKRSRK

The test system of one assay is HeLa. The experiment in a line: Proliferation assay (HeLa cell line).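 Also: crystal violet staining of cell number, scaled between a plate stained before dosing (0%) and cells left untreated (100%), compounds tested at 0.001-10 µM, IC50 via 4-parameter fit.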 The conditions noted are these: Homo sapiens, 96 h, read-out: Biological Assay 2: Proliferation assay (HeLa cell line) median IC50.
Experimental: Cultivated tumor cells (cells were ordered from ATCC, except HeLa-MaTu and HeLa-MaTu-ADR, which were ordered from EPO-GmbH, Berlin) were plated at a density of 1000 to 5000 cells/well, depending on the growth rate of the respective cell line, in a 96-well multititer plate in 200 μL of their respective growth medium supplemented 10% fetal calf serum. After 24 hours, the cells of one plate (zero-point plate) were stained with crystal violet (see below), while the medium of the other plates was replaced by fresh culture medium (200 μL), to which the test substances were added in various concentrations (0 μM, as well as in the range of 0.001-10 μM; the final concentration of the solvent dimethyl sulfoxide was 0.5%). The cells were incubated for 4 days in the presence of test substances. Cell proliferation was determined by staining the cells with crystal violet: the cells were fixed by adding 20 μL measuring point of an 11% glutaric aldehyde solution for 15 minutes at room temperature. After three washing cycles of the fixed cells with water, the plates were dried at room temperature. The cells were stained by adding 100 μL/measuring point of a 0.1% crystal violet solution (pH 3.0). After three washing cycles of the stained cells with water, the plates were dried at room temperature. The dye was dissolved by adding 100 μl/measuring point of a 10% acetic acid solution. […] The change of cell number, in percent, was calculated by normalization of the measured values to the absorbtion values of the zero-point plate (=0%) and the absorbtion of the untreated (0 μm) cells (=100%). The IC50 values were determined by means of a 4 parameter fit.
`CCOc1cc(F)c(Cn2nc(-c3ncc(OCCN)c(Nc4ccncc4)n3)c3ccccc32)c(F)c1` [Example 3-4-1, 5-(2-aminoethoxy)-2-[1-(4-ethoxy-2,6-difluorobenzyl)-1H-indazol-3-yl]-N-(pyridin-4-yl)pyrimidin-4-amine, reference compound]: the IC50 amounted to 1400 nM.

The next assay concerns the target T1, catalytic domain of human Bub1 (amino acids 704-1085) (Homo sapiens, UniProt O43683).
T1 construct: catalytic domain of human Bub1 (amino acids 704-1085); His6 (N); made in house; host or cells: Hi5 insect cells
The assay can be described thus: Bub1 kinase assay (TR-FRET). The assay is classed as biochemical. The conditions noted are these: 10 μM ATP, read-out: Biological Assay 1: Bub1 kinase assay median IC50. An outline of the steps:
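Compounds from 2 mM DMSO stocks, serially diluted 1:3.4, incubated with enzyme at 22° C for 60 min. Stopped with EDTA, then 1 h with streptavidin-XL665, anti-phosphoserine antibody and Eu-labelled anti-mouse IgG. Phosphorylated biotin-peptide read by TR-FRET; IC50 by 4-parameter logistic fit.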
For orientation: TR-FRET usually uses a lanthanide donor and a delayed reading to cut background.
Take `CCOc1cc(F)c(Cn2nc(-c3ncc(OCCN)c(Nc4ccncc4)n3)c3ccccc32)c(F)c1` [Example 3-4-1, 5-(2-aminoethoxy)-2-[1-(4-ethoxy-2,6-difluorobenzyl)-1H-indazol-3-yl]-N-(pyridin-4-yl)pyrimidin-4-amine, reference compound]: the IC50 came out at 3.4 nM. In the case of `COCCOc1cc(F)c(Cn2nc(-c3ncc(C)c(Nc4ccncc4OC)n3)c3ccccc32)c(F)c1` [Example 2-2-47, 2-{1-[2,6-difluoro-4-(2-methoxyethoxy)benzyl]-1H-indazol-3-yl}-N-(3-methoxypyridin-4-yl)-5-methylpyrimidin-4-amine], the IC50 turned out to be 8.7 nM.

Regarding `CCOc1cc(F)c(Cn2nc(-c3ncc(CCN)c(Nc4ccnc(C)c4)n3)c3ccccc32)c(F)c1` [Example 2-9-12, 5-(2-aminoethyl)-2-[1-(4-ethoxy-2,6-difluorobenzyl)-1H-indazol-3-yl]-N-(2-methylpyridin-4-yl)pyrimidin-4-amine, salt with hydrochloric acid], the IC50 came out at 4.3 nM.

Take `COCCOc1cc(F)c(Cn2nc(-c3nc(C)cc(Nc4ccncc4OC(F)(F)F)n3)c3ccccc32)c(F)c1` [Example 2-12-78, 2-{1-[2,6-difluoro-4-(2-methoxyethoxy)benzyl]-1H-indazol-3-yl}-6-methyl-N-[3-(trifluoromethoxy)pyr-idin-4-yl]pyrimidin-4-amine]: the IC50 amounted to 12 nM. For `COCc1cc(Nc2ccncc2OC)nc(-c2nn(Cc3c(F)cc(OCCO)cc3F)c3ccccc23)n1` [Example 2-12-49, 2-{3,5-difluoro-4-[(3-{4-(methoxymethyl)-6-[(3-methoxypyridin-4-yl)amino]pyrimidin-2-yl}-1H-indazol-1-yl)methyl]phenoxy}eth-anol], the IC50 is 8.8 nM. On to `COCCOc1cc(F)c(Cn2nc(-c3nc(C)c(C)c(Nc4ccncc4OC)n3)c3ccccc32)c(F)c1` [Example 2-12-76, 2-{1-[2,6-difluoro-4-(2-methoxyethoxy)benzyl]-1H-indazol-3-yl}-N-(3-methoxypyridin-4-yl)-5,6-dimethylpyrimidin-4-amine], for which the IC50 was 6.2 nM. For the molecule `CCOc1cc(F)c(Cn2nc(-c3ncc(CCN)c(Nc4ccncc4Cl)n3)c3ccccc32)c(F)c1` [Example 2-9-21, 5-(2-aminoethyl)-N-(3-chloropyridin-4-yl)-2-[1-(4-ethoxy-2,6-difluorobenzyl)-1H-indazol-3-yl]pyrimidin-4-amine], the IC50 is 13 nM.

The assay is the same for the next values; noted with them: Biological Assay 1: Bub1 kinase assay median IC50, 10 μM ATP.
The molecule `CC(=O)Nc1cc(Nc2nc(-c3nn(Cc4c(F)cc(O)cc4F)c4ccccc34)nc3c2CCC3)ccn1` [Example 2-6-7, N-[4-({2-[1-(2,6-difluoro-4-hydroxybenzyl)-1H-indazol-3-yl]-6,7-dihydro-5H-cyclopenta[d]pyrimidin-4-yl}amino)pyridin-2-yl]acetamide] returned an IC50 of 9.3 nM. The same measure, in the same setting: for `COCCOc1cc(F)c(Cn2nc(-c3ncc(C4CCNCC4)c(Nc4ccnc(NC(C)=O)c4)n3)c3ccccc32)c(F)c1` [Example 2-17-8, N-(4-{[2-{1-[2,6-difluoro-4-(2-methoxyethoxy)benzyl]-1H-indazol-3-yl}-5-(piperidin-4-yl)pyrimidin-4-yl]amino}pyridin-2-yl)acetamide] the value was 6.3 nM; for `COCCOc1cc(F)c(Cn2nc(-c3nc4c(c(Nc5cc(C)ncc5C)n3)CN(CC(F)(F)F)C4)c3ccccc32)c(F)c1` [Example 2-20-17, 2-{1-[2,6-difluoro-4-(2-methoxyethoxy)benzyl]-1H-indazol-3-yl}-N-(2,5-dimethylpyridin-4-yl)-6-(2,2,2-trifluoroethyl)-6,7-dihydro-5H-pyrrolo[3,4-d]pyrimidin-4-amine], 34 nM; for `COCCOc1cc(F)c(Cn2nc(-c3ncc(C4CCN(CC(F)(F)F)CC4)c(Nc4ccncc4Cl)n3)c3ccccc32)c(F)c1` [Example 2-20-8, N-(3-chloropyridin-4-yl)-2-{1-[2,6-difluoro-4-(2-methoxyethoxy)benzyl]-1H-indazol-3-yl}-5-[1-(2,2,2-trifluoroethyl)piperidin-4-yl]pyrimidin-4-amine], more than 20000 nM.

Molecule `CCOc1cc(F)c(Cn2nc(-c3nc(C)cc(Nc4ccncc4)n3)c3ccccc32)c(F)c1` [Example 2-12-1, 2-[1-(4-ethoxy-2,6-difluorobenzyl)-1H-indazol-3-yl]-6-methyl-N-(pyridin-4-yl)pyrimidin-4-amine] yielded an IC50 of 8.4 nM.

Consider `COCCOc1cc(F)c(Cn2nc(-c3nc(CN4CCOCC4)cc(Nc4ccncn4)n3)c3ccccc32)c(F)c1` [Example 2-12-37, 2-{1-[2,6-difluoro-4-(2-methoxyethoxy)benzyl]-1H-indazol-3-yl}-6-(morpholin-4-ylmethyl)-N-(pyrimidin-4-yl)pyrimidin-4-amine], for which the IC50 stood at 17 nM. The same measure, in the same setting: for `CCOc1cc(F)c(Cn2nc(-c3ncc(CCNCC(F)(F)F)c(Nc4ccnc(C)n4)n3)c3ccccc32)c(F)c1` [Example 2-20-13, 2-[1-(4-ethoxy-2,6-difluorobenzyl)-1H-indazol-3-yl]-N-(2-methylpyrimidin-4-yl)-5-{2-[(2,2,2-trifluoroethyl)amino]ethyl}pyrimidin-4-amine] the value was 560 nM; for `COCCOc1cc(F)c(Cn2nc(-c3nc(C)cc(Nc4ccnc(C)n4)n3)c3ccccc32)c(F)c1` [Example 2-12-71, 2-{1-[2,6-difluoro-4-(2-methoxyethoxy)benzyl]-1H-indazol-3-yl}-6-methyl-N-(2-methylpyrimidin-4-yl)pyrimidin-4-amine], 75 nM; for `CCOc1cc(F)c(Cn2nc(-c3nc4c(c(Nc5ccnc(C)c5)n3)COC4)c3ccccc32)c(F)c1` [Example 2-19-16, 2-[1-(4-ethoxy-2,6-difluorobenzyl)-1H-indazol-3-yl]-N-(2-methylpyridin-4-yl)-5,7-dihydrofuro[3,4-d]pyrimidin-4-amine], 100 nM.

Consider `COCCOc1cc(F)c(Cn2nc(-c3nc4c(c(Nc5ccnc(C)n5)n3)CN(CC(F)(F)F)C4)c3ccccc32)c(F)c1` [Example 2-20-16, 2-{1-[2,6-difluoro-4-(2-methoxyethoxy)benzyl]-1H-indazol-3-yl}-N-(2-methylpyrimidin-4-yl)-6-(2,2,2-trifluoroethyl)-6,7-dihydro-5H-pyrrolo[3,4-d]pyrimidin-4-amine], for which the IC50 is 120 nM. On to `Cc1cnccc1Nc1nc(-c2nn(Cc3c(F)cc(O)cc3F)c3ccccc23)nc2c1CCC2` [Example 2-6-5, 3,5-difluoro-4-[(3-{4-[(3-methylpyridin-4-yl)amino]-6,7-dihydro-5H-cyclopenta[d]pyrimidin-2-yl}-1H-indazol-1-yl)methyl]phenol], for which the IC50 was found to be 7.7 nM. Still for that read-out and setting: for `CCOc1cc(F)c(Cn2nc(-c3nc(Nc4ccnc(C)n4)cc(C4CCOCC4)n3)c3ccccc32)c(F)c1` [Example 2-12-89, 2-[1-(4-ethoxy-2,6-difluorobenzyl)-1H-indazol-3-yl]-N-(2-methylpyrimidin-4-yl)-6-(tetrahydro-2H-pyran-4-yl)pyrimidin-4-amine] the value was 1100 nM; for `CCOc1cc(F)c(Cn2nc(-c3nc4c(c(Nc5ccnc(C)c5)n3)CS(=O)(=O)C4)c3ccccc32)c(F)c1` [Example 2-19-5, 2-[1-(4-ethoxy-2,6-difluorobenzyl)-1H-indazol-3-yl]-N-(2-methylpyridin-4-yl)-5,7-dihydrothieno[3,4-d]pyrimidin-4-amine 6,6-dioxide], 140 nM; for `CCOc1cc(F)c(Cn2nc(-c3nc4c(c(Nc5ccnc(C(F)F)c5)n3)CS(=O)(=O)C4)c3ccccc32)c(F)c1` [Example 2-19-14, N-[2-(difluoromethyl)pyridin-4-yl]-2-[1-(4-ethoxy-2,6-difluorobenzyl)-1H-indazol-3-yl]-5,7-dihydrothieno[3,4-d]pyrimidin-4-amine 6,6-dioxide], 460 nM. For the molecule `COCCOc1cc(F)c(Cn2nc(-c3nc(CN4CCOCC4)cc(Nc4ccnc(C(F)F)c4)n3)c3ccccc32)c(F)c1` [Example 2-12-36, 2-{1-[2,6-difluoro-4-(2-methoxyethoxy)benzyl]-1H-indazol-3-yl}-N-[2-(difluoromethyl)pyridin-4-yl]-6-(morpholin-4-ylmethyl)pyrimidin-4-amine], the IC50 came to 57 nM. Still for that read-out and setting: the value for `Cc1nccc(Nc2cc(C(C)C)nc(-c3nn(Cc4c(F)cc(OCCO)cc4F)c4ccccc34)n2)n1` [Example 2-6-28, 2-{3,5-difluoro-4-[(3-{4-isopropyl-6-[(2-methylpyrimidin-4-yl)amino]pyrimidin-2-yl}-1H-indazol-1-yl)methyl]phenoxy}ethanol] was 510 nM. Still for that read-out and setting: for `COCCOc1cc(F)c(Cn2nc(-c3nc4c(c(Nc5ccncc5Cl)n3)CNC4)c3ccccc32)c(F)c1` [Example 2-9-24, N-(3-chloropyridin-4-yl)-2-{1-[2,6-difluoro-4-(2-meth-oxyethoxy)benzyl]-1H-indazol-3-yl}-6,7-dihydro-5H-pyrrolo[3,4-d]pyrimidin-4-amine] the value was 38 nM; for `CCOc1cc(F)c(Cn2nc(-c3ncc(C)c(Nc4ccncc4)n3)c3ccccc32)c(F)c1` [Example 2-2-4, 2-[1-(4-ethoxy-2,6-difluorobenzyl)-1H-indazol-3-yl]-5-methyl-N-(pyridin-4-yl)pyrimidin-4-amine], 13 nM; for `CCOc1cc(F)c(Cn2nc(-c3ncc(CCCOC)c(Nc4ccncc4)n3)c3ccccc32)c(F)c1` [Example 2-2-11, 2-[1-(4-ethoxy-2,6-difluorobenzyl)-1H-indazol-3-yl]-5-(3-methoxypropyl)-N-(pyridin-4-yl)pyrimidin-4-amine], 17 nM.
